Like-named read-outs stand apart in the source and are kept apart here.

The values below come from patent US20240252677A1, “ONE-COMPONENT DELIVERY SYSTEM FOR NUCLEIC ACIDS” (The Trustees of the University of Pennsylvania, priority 2021, published 2024).

Series [1] can be described thus: pKa measurements of individual IAJD molecules by titration. Format: physicochemical. Particulars: ethanol saturated with NaCl, titrated with 0.1 M aqueous HCl, titration. Put shortly: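 Compound dissolved at 1.5 mg/mL in NaCl-saturated ethanol and titrated with 0.1 M HCl in 7.5 μL steps, pH read by electrode after each addition. pKa taken from the half-equivalence point.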

The nature of series [2]: Dimensions (size, PDI) of DNPs co-assembled from IAJDs and Luc-mRNA by DLS. The format is physicochemical. In outline:
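IAJDs (80 mg/mL ethanol stock) rapidly injected into Luc-mRNA (4.0 mg/mL stock) diluted in 10 mM acetate buffer pH 4.0, then vortexed 5 s. Size and polydispersity of resulting DNPs measured by DLS (633 nm laser, 175° detection) at 23 °C.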

The test system of another series is spleen. In words: In vivo mRNA delivery, IVIS imaging of organs: spleen. The arrangement: species or system mice; key to Organs with luminescence: spleen: strong: Strong meant the luminescence intensity in that organ was relatively high, compared to other organs; weak: Weak meant the luminescence intensity in that organ was relatively low, compared to other organs. Particulars: for Organs with luminescence: spleen (weak/strong): Table 14, imaging 5 h after injection; for Organs with luminescence: spleen: Table 17, mice, IVIS, 4-6 h after injection, intensity relative to other organs.

The subject of another series is BALB/c mice. Particulars: cited from earlier work.
The nature of series [3]: Stability of DNPs by DLS after storage at 5° C. Format: physicochemical. The conditions noted are these: for pH Sample: DNPs: IAJD 4.0 mg/mL + Luc-mRNA 0.1 mg/mL, injection in acetate buffer pH 4.00; for PDI / Size (d, nm) / Original size distribution type (DLS curve): IAJD 4.0 mg/mL + Luc-mRNA 0.1 mg/mL; for PDI / Size (d, nm): acetate buffer; for Original size distribution type (DLS curve): before storage, acetate buffer pH 4.00. The arrangement: key to Original size distribution type (DLS curve) / Size distribution type (DLS curve): U: DLS curve showed unimodal size distribution; B: DLS curve showed bimodal size distribution; M: DLS curve showed multimodal size distribution. In outline:
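DNPs in acetate buffer sized by DLS after storage at 5 °C. Stability ranked Excellent, Good or Not stable according to retention, shrinkage or growth of original size and narrowing or broadening of size distribution.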

The mark [4] stands for this setting: Table 15, individual IAJD molecule.
[5] abbreviates: Table 12, DNPs, IAJD 4 mg/mL + Luc-mRNA 0.10 mg/mL, acetate buffer 10 mM pH 4.0.
The mark [6] stands for this setting: Table 13, DNPs, IAJD 4 mg/mL + Luc-mRNA 0.10 mg/mL, acetate buffer pH 4.0.
Where [7] appears, read: Table 14, DNPs, IAJD 4 mg/mL + Luc-mRNA 0.10 mg/mL, acetate buffer pH 4.0.
Where [8] appears, read: Table 18, symmetric IAJDs, results available in the literature.
[9] abbreviates: Table 20, corresponding symmetric IAJDs (literature per Table 18).
The mark [10] stands for this setting: Table 16, DNPs from IAJD 4 mg/mL and Luc-mRNA 0.10 mg/mL by injection in acetate buffer (10 mM, pH 4.0).
[11] abbreviates: Table 17, DNPs used in vivo, IAJD 4 mg/mL, Luc-mRNA 0.10 mg/mL, acetate pH 4.0.

Broadly, the pKa is the negative logarithm of the acid dissociation constant. In series [1] (setting [4]), `CCCCCCCCCCCCCCOc1cc(COC(=O)CCCN2CCN(C)CC2)cc(OCCCCCCCCCCCCCC)c1` [IAJD 74, 3,5-Bis(tetradecyloxy)benzyl 4-(4-methylpiperazin-1-yl)butanoate] came in with a pKa of 6.32. Further, the PDI in series [2] (setting [5]), in series [2] (setting [6]) and in series [2] (setting [7]) was 0.317 each time. The “Size (d, nm)” value in series [2] (setting [5]), in series [2] (setting [6]) and in series [2] (setting [7]) was 180 nm each time. In the series on spleen, the “Organs with luminescence: spleen (weak/strong)” value (shortened to “Organs … (weak/strong)”) is on record as “spleen (strong)”. The “In vivo activity (total flux, p/s)” value with BALB/c mice (setting [8]) and in the series on BALB/c mice (setting [9]) was 1.71 × 10^7 p/s throughout.
In turn, `CCCCCCCCCCCCCCCCOc1cc(COC(=O)CCCN2CCN(C)CC2)cc(OCCCCCCCCCCCCCCCC)c1` [IAJD 75, 3,5-Bis(hexadecyloxy)benzyl 4-(4-methylpiperazin-1-yl)butanoate] came in with a pKa in series [1] (setting [4]) of 6.22. The PDI in series [2] (setting [5]), in series [2] (setting [6]) and in series [2] (setting [7]) was 0.328 in each case. The “Size (d, nm)” value in series [2] (setting [5]), in series [2] (setting [6]) and in series [2] (setting [7]) was 235 nm throughout. Besides, in the series on spleen, the “Organs … (weak/strong)” value is “spleen (strong)”. Also, the “In vivo activity (total flux, p/s)” value in the series on BALB/c mice (setting [8]) and in the series on BALB/c mice (setting [9]) was 3.37 × 10^7 p/s each time.
Take `CCCCC(CC)COc1cc(COC(=O)CCCN2CCN(C)CC2)cc(OCC(CC)CCCC)c1` (stereo not shown) [IAJD 76, 3,5-Bis((2-ethylhexyl)oxy)benzyl 4-(4-methylpiperazin-1-yl)butanoate]: the pKa in series [1] (setting [4]) was determined as 6.28. Further, the PDI in series [2] (setting [5]), in series [2] (setting [6]) and in series [2] (setting [7]) was 0.287 in each case. The “Size (d, nm)” value in series [2] (setting [5]), in series [2] (setting [6]) and in series [2] (setting [7]) was 78 nm in each case. The “Organs … (weak/strong)” value in the series with spleen is recorded as “spleen (strong)”. For the same compound, the “In vivo activity (total flux, p/s)” value in the series with BALB/c mice (setting [8]) is on record as 7.81 × 10^7 p/s.
The compound `CCCCCCCCCOc1cc(COC(=O)CCCN2CCN(C)CC2)cc(OCCCCCCCCC)c1` [IAJD 77, 3,5-Bis(nonyloxy)benzyl 4-(4-methylpiperazin-1-yl)butanoate] gave a pKa in series [1] (setting [4]) of 6.4. For the same compound, the PDI in series [2] (setting [5]), in series [2] (setting [6]) and in series [2] (setting [7]) was 0.267 in each case. Moreover, the “Size (d, nm)” value in series [2] (setting [5]), in series [2] (setting [6]) and in series [2] (setting [7]) was 110 nm each time. Also, the “Organs … (weak/strong)” value in the series with spleen was “spleen (strong)”. In the series on BALB/c mice (setting [8]), the “In vivo activity (total flux, p/s)” value is recorded as 2.44 × 10^6 p/s.
In turn, `CCCCCCCCCCCCCOc1cc(COC(=O)CCCN2CCN(C)CC2)cc(OCC(CC)CCCC)c1` (stereo not shown) [IAJD 161, 3-((2-Ethylhexyl)oxy)-5-(tridecyloxy)benzyl 4-(4-methylpiperazin-1-yl)butanoate] returned a pKa in series [1] (individual IAJD molecules) of 6.38. For the same compound, in series [2] (setting [10]), the PDI came out at 0.235 and the “Size (d, nm)” value worked out at 129 nm. For the same compound, in series [2] (setting [11]), the PDI was 0.235 and the “Size (d, nm)” value amounted to 129 nm. For the same compound, in the series with spleen, the “Organs with luminescence: spleen” value was “spleen (strong)”. In addition, in series [3], the “pH Sample” value came out at 4.97 and the “Original size distribution type (DLS curve)” value is recorded as “(U)”. In series [3] (after 21 days at 5° C.), the “Size distribution type (DLS curve)” value is reported as “(U)”; the PDI amounted to 0.226; the “Size (d, nm)” value is recorded as 125 nm.
With `CCCCCCCCCCCCCOc1cc(COC(=O)CCCN2CCN(CCO)CC2)cc(OCC(CC)CCCC)c1` (stereo not shown) [IAJD 162, 3-((2-Ethylhexyl)oxy)-5-(tridecyloxy)benzyl 4-(4-(2-hydroxyethyl)piperazin-1-yl)butanoate], the pKa in series [1] (individual IAJD molecules) amounted to 6.33. In series [2] (setting [10]), the PDI turned out to be 0.301 and the “Size (d, nm)” value turned out to be 191 nm. Moreover, in series [2] (setting [11]), the PDI is recorded as 0.301 and the “Size (d, nm)” value came out at 191 nm. The “Organs with luminescence: spleen” value in the series on spleen was “spleen (strong)”. In addition, in series [3], the “pH Sample” value came to 4.66 and the “Original size distribution type (DLS curve)” value was “(B)”. Further, in series [3] (after 21 days at 5° C.), the “Size distribution type (DLS curve)” value is on record as “(B)”; the PDI is 0.291; the “Size (d, nm)” value came to 182 nm.
As for `CCCCCCCCCCCCCCOc1cc(COC(=O)CCCN2CCN(C)CC2)cc(OCCCCCCCCCCCCC)c1` [IAJD 171, 3-(Tetradecyloxy)-5-(tridecyloxy)benzyl 4-(4-methylpiperazin-1-yl)butanoate], the pKa in series [1] (individual IAJD molecules) is 6.16. In addition, in series [2] (setting [10]), the PDI turned out to be 0.268 and the “Size (d, nm)” value turned out to be 174 nm. Moreover, in series [2] (setting [11]), the PDI came to 0.268 and the “Size (d, nm)” value turned out to be 174 nm. Besides, in the series with spleen, the “Organs with luminescence: spleen” value is given as “spleen (strong)”. Moreover, in series [3], the “pH Sample” value is given as 4.88 and the “Original size distribution type (DLS curve)” value is listed as “(U)”. Further, in series [3] (after 21 days at 5° C.), the “Size distribution type (DLS curve)” value is “(U)”; the PDI is 0.277; the “Size (d, nm)” value is 175 nm.
In series [1] (individual IAJD molecules), `CCCCCCCCCCCCCCOc1cc(COC(=O)CCCN2CCN(CCO)CC2)cc(OCCCCCCCCCCCCC)c1` [IAJD 172, 3-(Tetradecyloxy)-5-(tridecyloxy)benzyl 4-(4-(2-hydroxyethyl)piperazin-1-yl)butanoate] showed a pKa of 6.03. For the same compound, in series [2] (setting [10]), the PDI is recorded as 0.203 and the “Size (d, nm)” value turned out to be 235 nm. In series [2] (setting [11]), the PDI is given as 0.203 and the “Size (d, nm)” value is 235 nm. Moreover, the “Organs with luminescence: spleen” value in the series on spleen is recorded as “spleen (strong)”. In series [3], the “pH Sample” value was found to be 4.84 and the “Original size distribution type (DLS curve)” value was “(U)”. In addition, in series [3] (after 14 days at 5° C.), the “Size distribution type (DLS curve)” value was “(U)”; the PDI amounted to 0.219; the “Size (d, nm)” value was determined as 225 nm.
`CCCCCCCCCCCCCCCCOc1cc(COC(=O)CCCN2CCN(C)CC2)cc(OCCCCCCCCCCCCC)c1` [IAJD 173, 3-(Hexadecyloxy)-5-(tridecyloxy)benzyl 4-(4-methylpiperazin-1-yl)butanoate] gave a pKa in series [1] (individual IAJD molecules) of 5.91. Also, in series [2] (setting [10]), the PDI came out at 0.301 and the “Size (d, nm)” value worked out at 139 nm. For the same compound, in series [2] (setting [11]), the PDI is given as 0.301 and the “Size (d, nm)” value is 139 nm. Also, in the series on spleen, the “Organs with luminescence: spleen” value is reported as “spleen (weak)”. Moreover, in series [3], the “pH Sample” value turned out to be 4.79 and the “Original size distribution type (DLS curve)” value is given as “(U)”. For the same compound, in series [3] (after 21 days at 5° C.), the “Size distribution type (DLS curve)” value is reported as “(B)”; the PDI is reported as 0.376; the “Size (d, nm)” value is given as 132 nm.
`CCCCCCCCCCCCCCCCCCOc1cc(COC(=O)CCCN2CCN(C)CC2)cc(OCCCCCCCCCCCCC)c1` [IAJD 177, 3-(Octadecyloxy)-5-(tridecyloxy)benzyl 4-(4-methylpiperazin-1-yl)butanoate]: the pKa in series [1] (individual IAJD molecules) was 5.9. Also, in series [2] (setting [10]), the PDI amounted to 0.275 and the “Size (d, nm)” value stood at 159 nm. In series [2] (setting [11]), the PDI is recorded as 0.275 and the “Size (d, nm)” value is reported as 159 nm. The “Organs with luminescence: spleen” value with spleen is “spleen (strong)”. In addition, in series [3], the “pH Sample” value came out at 4.76 and the “Original size distribution type (DLS curve)” value was “(B)”. For the same compound, in series [3] (after 21 days at 5° C.), the “Size distribution type (DLS curve)” value is on record as “(B)”; the PDI amounted to 0.218; the “Size (d, nm)” value came out at 153 nm.
The compound `CCCCCCCCCCCCCCCCCCOc1cc(COC(=O)CCCN2CCN(CCO)CC2)cc(OCCCCCCCCCCCCC)c1` [IAJD 178, 3-(Octadecyloxy)-5-(tridecyloxy)benzyl 4-(4-(2-hydroxyethyl)piperazin-1-yl)butanoate] came in with a pKa in series [1] (individual IAJD molecules) of 5.97. In addition, in series [2] (setting [10]), the PDI came out at 0.223 and the “Size (d, nm)” value was 344 nm. For the same compound, in series [2] (setting [11]), the PDI worked out at 0.223 and the “Size (d, nm)” value was determined as 344 nm. Further, the “Organs with luminescence: spleen” value in the series with spleen is “spleen (strong)”. Moreover, in series [3], the “pH Sample” value was 4.58 and the “Original size distribution type (DLS curve)” value is “(U)”. Moreover, in series [3] (after 21 days at 5° C.), the “Size distribution type (DLS curve)” value is reported as “(U)”; the PDI is on record as 0.261; the “Size (d, nm)” value came out at 261 nm.
